How the values were obtained:
[1] = molecular target: T1, carboanhydrase of the subtype Va of mice (mCA Va) (Mus musculus, UniProt P23589); experiment: 4-nitrophenylacetate-esterase enzyme activity test, mCA Va used at 120 nM; type: biochemical; conditions: mCA Va obtained by biotechnological processes; enzyme concentration 120 nM; read-out: inhibitory action on carboanhydrase of the subtype Va of mice (IC50)
T1 construct: made in house; host or cells: Escherichia coli BL 21 (DE3)
T1 sequence (P23589 30-299): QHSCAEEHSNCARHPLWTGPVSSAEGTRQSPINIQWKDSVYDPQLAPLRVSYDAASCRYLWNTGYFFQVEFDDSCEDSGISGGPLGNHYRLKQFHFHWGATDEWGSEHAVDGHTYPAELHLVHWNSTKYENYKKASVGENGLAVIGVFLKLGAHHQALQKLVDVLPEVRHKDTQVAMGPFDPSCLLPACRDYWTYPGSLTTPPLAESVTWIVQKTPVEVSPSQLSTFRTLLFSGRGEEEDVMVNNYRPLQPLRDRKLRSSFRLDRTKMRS
Protocol: In a departure from the test procedure described by Scozzafava et al, in this case the enzyme mCA Va was used in a concentration of 120 nM. The mCA Va was obtained in known manner by the method described by H. R. Heck et al., Journal of Biological Chemistry 269 (1994) 24742-24746. To this end, the strain of bacteria Escherichia coli BL 21 (DE3) was used, which was used with a plasmid vector which contained the sequence coding for mCA Va under the control of the T7 promoter which can be induced by isopropyl-β-D-thiogalactopyranoside (IPTG). The bacterial culture was inoculated at 37° C. with stirring into a Luria-Bertani liquid medium containing ampicillin (100 μg/ml) and its growth was monitored by spectrophotometry at 600 nm. Once the bacterial culture had entered the exponential growth phase, IPTG was added in a final concentration of 1 mmol/liter. After 3 hours incubation time (37° C. with stirring), the bacterial culture was centrifuged at 7000×g for 15 minutes, and the supernatant was discarded. The resulting pellet was taken up in 0.1 vol twice-distilled water, and lysozyme (100 μg/ml) was added thereto. The cell lysis took place under ultrasound treatment. […] After each ultrasound pulse, the absorption of the samples was determined at 600 nm, for which each 100 μl of a-sample was diluted with 900 μl twice-distilled water. […]

[2] = test system: of the 3T3-F442A cell line; experiment: Test model according to Hazen et al.: formation of acid-soluble metabolic products of the citric acid cycle; type: cell-based; conditions: Adipocyte; rat adipocytes of the 3T3-F442A cell line; read-out: inhibitory effect on the formation of acid-soluble metabolic products of the citric acid cycle (IC50)
Excerpt: In a second embodiment of the method according to the invention, compounds suitable for the treatment and/or prophylaxis of obesity can be discovered by selecting those compounds which are capable of reducing the amount of metabolic products formed in the citric acid cycle of isolated living mammalian cells or of lipidic secondary products of the citric acid cycle. […] Citrate is preferred. Furthermore, lipidic secondary products of the citric acid cycle, such as free fatty acids, are suitable as metabolic products. Lastly, in this second embodiment, the ability of the test compounds to inhibit the activity of at least one carboanhydrase occurring in mammals is also determined, although the test model used is set up differently from the first embodiment mentioned. The process of the second embodiment is based on the principle of determining in known manner the uptake of radioactivity from substrates of the citric acid cycle labeled with the ^14C-isotope into metabolic intermediate products or secondary products of the citric acid cycle of isolated, living mammalian cells and comparing the results obtained with the results obtained under otherwise identical conditions, but under the influence of CA-inhibitory compounds. Isolated living cells of rodents such as rats, mice or guinea-pigs, or of man, are preferably used in this variant of the method. Human cells are preferred. […]

SMILES: CC1(C)O[C@@H]2[C@@H](CO[C@@]3(COS(N)(=O)=O)OC(C)(C)O[C@@H]23)O1 [topiramate]
- IC50 [1]: 74 nM
- IC50 [2]: 348 nM

From patent US7282325B2, “Method of preparing pharmaceutical compositions” (Solvay Pharmaceuticals GmbH, priority 2000, dated 2007)
